Experimental data published in patent US20250154169A1, “COMPOUNDS AND METHODS FOR MODULATING SPLICING” (REMIX THERAPEUTICS INC., priority 2021, published 2025).
Read-outs that look alike come from different tables or passages of the source.

Key:
HTT mRNA = assay: Splicing RT-qPCR assay, HTT canonical (CJ) and alternative (AJ) junction mRNA; assay type: cell-based, human; settings: Homo sapiens, A673 or K562 cells, 24 hours compound treatment; for IC50: read-out: HTT CJ (IC50, decrease in canonical junction mRNA); for AC50: read-out: HTT AJ (AC50, increase in alternative junction mRNA)
In short: (§1)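 Canonical (CJ) and alternative-exon (AJ) junction mRNAs quantified by one-step RT-qPCR in cell lysates, normalized to housekeeping PPIA for A673 and GAPDH or GUSB for K562. Cells were exposed 24 h at 37 °C to 11-point 3-fold compound series from 10 uM final, with DMSO at or below 0.25%.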

MYB mRNA = assay: Splicing RT-qPCR assay, MYB canonical (CJ) and alternative (AJ) junction mRNA; assay type: cell-based, human; settings: Homo sapiens, A673 or K562 cells, 24 hours compound treatment, RT-qPCR; for AC50: read-out: MYB AJ (AC50, increase in alternative junction mRNA); for IC50: read-out: MYB CJ (IC50, decrease in canonical junction mRNA)
In short: as §1

IC50 (HTT mRNA; 24 h) | IC50 (MYB mRNA; 24 h) | SMILES | AC50 (HTT mRNA) | AC50 (MYB mRNA; 24 h) | IC50 (HTT mRNA) | AC50 (MYB mRNA) | IC50 (MYB mRNA)
1000 to 10000 nM | 100 to 1000 nM | CCn1cc2c(N3CCC(NC4CC4)CC3)cc(Cl)c(C(=O)Nc3cc(F)c4nc(C)cn4c3)c2n1 [Compound 627] | 1000 to 10000 nM | 100 to 1000 nM |  |  | 
 |  | Cc1cn2cc(NC(=O)c3ccc(N4CCC(N5C6COCC65)C4)c4cn(C)nc34)cc(F)c2n1 (stereo not shown) [Compound 629] | 1000 to 10000 nM |  | 1000 to 10000 nM | 1000 to 10000 nM | 1000 to 10000 nM
> 10000 nM | 1000 to 10000 nM | CNc1nc(NC(=O)c2ccc(N3CC[C@@H](NC)C3)c3cn(C)nc23)cn2cc(C)nc12 [Compound 631, 2-methyl-N-[2-methyl-8-(methylamino)imidazo[1,2-a]pyrazin-6-yl]-4-[(3R)-3-(methylamino)pyrrolidin-1-yl]indazole-7-carboxamide] | > 10000 nM | 1000 to 10000 nM |  |  | 
1000 to 10000 nM | 100 to 1000 nM | Cc1cn2cc(NC(=O)c3ccc(N4CC[C@@H](NC5C6COCC65)C4)c4cn(C)nc34)cc(F)c2n1 (stereo partly shown) [Compound 633] | > 10000 nM | 100 to 1000 nM |  |  | 
> 10000 nM | 100 to 1000 nM | CCn1cc2c(N3CC[C@@H](NC)C3)cc(O)c(C(=O)Nc3cc(F)c4nc(C)cn4c3)c2n1 [Compound 635] | > 10000 nM | 1000 to 10000 nM |  |  | 
1000 to 10000 nM | 100 to 1000 nM | CCn1cc2c(N3CC[C@@H](N(C)C)C3)cc(O)c(C(=O)Nc3cc(F)c4nc(C)cn4c3)c2n1 [Compound 637] | 1000 to 10000 nM | 1000 to 10000 nM |  |  | 
> 10000 nM | 100 to 1000 nM | Cc1cn2cc(NC(=O)c3ccc(N4CC[C@@H](NCC5(O)CC5)C4)c4cn(C)nc34)cc(F)c2n1 [Compound 639] | > 10000 nM | 100 to 1000 nM |  |  | 
1000 to 10000 nM | < 100 nM | CCC(=O)CN[C@@H]1CCN(c2ccc(C(=O)Nc3cc(F)c4nc(C)cn4c3)c3nn(C)cc23)C1 [Compound 641] | 1000 to 10000 nM | < 100 nM |  |  | 
> 10000 nM | 100 to 1000 nM | Cc1cn2cc(NC(=O)c3ccc(N4CC[C@@H](NC5(CO)CC5)C4)c4cn(C)nc34)cc(F)c2n1 [Compound 643] | > 10000 nM | 100 to 1000 nM |  |  | 
1000 to 10000 nM | 100 to 1000 nM | Cc1cn2cc(NC(=O)c3ccc(N4CC[C@@H](NC5CC5(C)C)C4)c4cn(C)nc34)cc(F)c2n1 (stereo partly shown) [Compound 645] | > 10000 nM | 100 to 1000 nM |  |  | 
> 10000 nM | 100 to 1000 nM | Cc1cn2cc(NC(=O)c3ccc(N4CC[C@@H](NC5CC56CCOCC6)C4)c4cn(C)nc34)cc(F)c2n1 (stereo partly shown) [Compound 649] | > 10000 nM | 100 to 1000 nM |  |  | 
> 10000 nM | > 10000 nM | CN[C@@H]1CCN(c2ccc(C(=O)Nc3nc(OC)c4nc(C)cn4c3F)c3nn(C)cc23)C1 [Compound 651] | > 10000 nM | > 10000 nM |  |  | 
> 10000 nM | > 10000 nM | CCn1cc2c(N3CC[C@@H](NC)C3)cc(OC)c(C(=O)Nc3cc(F)c4nc(C)cn4c3)c2n1 [Compound 653] | > 10000 nM | > 10000 nM |  |  | 
